# Test results published in patent publication US11007248B2, “Suppression of allergic lung inflammation and hyperreactivity” (The Regents of the University of California, priority 2013, dated 2021).
# Where no end group is shown, it is not given here. The star is where a group is joined. Myristoyl = CCCCCCCCCCCCCC(=O)*
# How the values were obtained:
# [1] = tested on: antigen-presenting cells, dendritic cells (DCs); experiment: Homing of antigen-presenting dendritic cells to mediastinal lymph nodes, flow cytometry, Ova-induced allergic mouse asthma; assay type: in vivo; details: allergic animal model; OVA-DQ challenge day 15-18; CD11c+ cells in mediastinal lymph nodes
# Experimental: For detection of antigen specific DCs migration, mice were challenged with 150 μg OVA-DQ (Life Technologies, Grand Island, N.Y.) for one time per day at day 15-18. Cells were isolated from the mediastinal lymph nodes and lungs. Cells were stained with CD11c conjugated PEC-Cy7 (BD Bioscience, San Jose, Calif.) and analyzed by flow cytometry. Peptides used in this study were (wild type) MPS, A-MPS (mutant 2 in the figure) and D-MPS (mutant 1 in the FIG. 8).
# [2] = tested on: OVA-allergic mouse airways; experiment: Lung section histology (H&E, PAS), murine OVA-allergic model; assay type: in vivo; details: for allergic inflammation associated with allergen/ovalbumin-induced allergic airway disease: mouse
# Experimental: (§1) FIG. 2A: Murine OVA-allergic model.
# FIGS. 4A-4B show MPS suppressed mucous cell metaplasia (stained by periodic acid stain (PAS)) and inflammatory cells in OVA-allergic mouse airways. Experiments were carried out as described in FIG. 2A. At day 19, animals were sacrificed and lung tissues were fixed for paraffin sections. FIG. 4A: Lung sections were stained by H&E, and PAS staining. Original magnification ×200. FIG. 4B: Quantification of the numbers of H&E-stained cells and PAS-stained cells, and the score of the Masson trichrome staining are presented in bar graphs. Data are expressed as mean±SEM values (n=6).
# [3] = tested on: OVA-allergic mouse airways; experiment: Airway resistance by invasive body plethysmography, murine OVA-allergic model; assay type: in vivo; details: peptide i.p. before OVA i.n. challenge
# Experimental: as §1
# Experiments were carried out as described in FIG. 2A. At day 19, animals were collected for airway resistance as measured by invasive body plethysmography. Data are expressed as the mean±SEM values (n=3). # p<0.05, PBS+OVA compared with the PBS control. *p<0.05, MPS +OVA compared with the PBS+OVA group.
# phospho-MARCKS = experiment: IL-13-induced signaling in primary NHBE cells, western blot: phospho-MARCKS; assay type: cell-based, human; details: air-liquid interface, peptide 50 μM for 4 hrs, then IL-13 20 ng/ml for one hour
# phospho-STAT6 = experiment: IL-13-induced signaling in primary NHBE cells, western blot: phospho-STAT6; assay type: cell-based, human; details: air-liquid interface, peptide 50 μM for 4 hrs, then IL-13 20 ng/ml for one hour
# mucus secretion = details: previously reported, U.S. Patent Application Publication No. 2009/00220581; cited from earlier work
# p-Ser-159/163 MARCKS = details: MPS 154 μg/mouse/day i.p. day 10-14 prior to OVA i.n. exposure; IHC of lung tissue sections
# OVA-specific IgE = details: OVA-allergic mouse; MPS 154 μg/mouse/day i.p.; ELISA
# [4] = tested on: BALF inflammatory cytokines (IL-4, IL-5, IL-13, eotaxin; IFN-γ); details: OVA-allergic mouse airways; MPS 154 μg/mouse/day i.p.; ELISA
# [5] = tested on: inflammatory cell types in OVA-allergic mouse airways
# [6] = day 19, MPS+OVA vs PBS+OVA p<0.05
# [7] = OVA-allergic mouse airways, MPS 154 μg/mouse/day i.p., day 19
Substance,lymph node homing of antigen presenting cells [1],allergic inflammation associated with allergen/ovalbumin-induced allergic airway disease [2],"airway hyper-reactivity (airway resistance) [3, 6]",suppression of IL-13-induced phospho-MARCKS elevation (phospho-MARCKS),suppression of IL-13-induced phospho-STAT6 elevation (phospho-STAT6),mucus secretion (mucus secretion),MARCKS phosphorylation in OVA sensitizing mice (p-Ser-159/163 MARCKS),"inflammatory cells in lung tissue (H&E) [2, 7]","mucous cell metaplasia (PAS stain) [2, 7]","airway hyper-reactivity (airway resistance) ([3]; day 19, MPS+OVA vs PBS+OVA p<0.05, listed as (wild-type) MPS)",serum OVA-specific IgE (OVA-specific IgE),Th1 cytokine (IFN-γ) in BALF [4],"Th2 cytokines (IL-4, IL-5, IL-13, eotaxin) in BALF [4]",eosinophils (inflammatory response) ([5]; BALF differential cell counts),"presence of various inflammatory cell types in BALF ([5]; MPS 154 μg/mouse/day i.p., day 19)"
KKKKKRFDFKKDFKLDGFDFKKNKK [D-MPS],no suppressive effects,not seen,not seen,not,not,–,–,–,–,–,–,–,–,–,–
myristic acid—KKKKKRFSFKKSFKLSGFSFKKNKK (Myristoyl-KKKKKRFSFKKSFKLSGFSFKKNKK) [myristic acid-wild type MPS disclosed in U.S. 2009/00220581],–,–,–,–,–,increased,–,–,–,–,–,–,–,–,–
KKKKKRFAFKKAFKLAGFAFKKNKK [A-MPS],inhibited,able to suppress,able to suppress,very effective in the suppression,very effective in the suppression,–,–,–,–,–,–,–,–,–,–
KKKKKRFSFKKSFKLSGFSFKKNKK [MPS],inhibited,able to suppress,suppressed,very effective in the suppression,very effective in the suppression,–,effectively suppress,suppressed,suppressed,able to suppress,suppressed,not,suppressed specifically,reduction,suppressed
